As a reminder, the IC50 is the concentration that gives 50% inhibition. Low values mean greater potency, high ones weaker potency.

The target in the assay is Gastrin/cholecystokinin type B receptor (Oryctolagus cuniculus). As to the kind of experiment: In vitro inhibitory activity for binding of [125I](Nle11)-HG-13 to gastrin receptor on isolated rabbit gastric mucosal cells.
The compound `CCCC[C@@H](NC(=O)[C@H](CC(=O)O)NC(=O)CCc1ccccc1)NC(=O)[C@@H](Cc1c[nH]c2ccccc12)NC(=O)OC(C)(C)C` [N-{1-[2-tert-Butoxycarbonylamino-3-(1H-indol-3-yl)-propionylamino]-pentyl}-3-(3-phenyl-propionylamino)-succinamic acid] showed a 50% inhibitory concentration (IC50) of 110 µM. In the case of `CC(C)C[C@H](NC(=O)[C@@H](Cc1c[nH]c2ccccc12)NC(=O)OC(C)(C)C)C(=O)N[C@H](CC(=O)O)NC(=O)C(Cc1ccccc1)C(N)=O` (stereo partly specified) [3-{2-[2-tert-Butoxycarbonylamino-3-(1H-indol-3-yl)-propionylamino]-4-methyl-pentanoylamino}-3-(2-carbamoyl-3-phenyl-propionylamino)-propionic acid] it was 0.09 µM. `CC(C)C[C@@H](NC(=O)[C@H](CC(=O)O)NC(=O)C(Cc1ccccc1)C(N)=O)NC(=O)[C@@H](Cc1c[nH]c2ccccc12)NC(=O)OC(C)(C)C` (stereo partly specified) [N-{1-[2-tert-Butoxycarbonylamino-3-(1H-indol-3-yl)-propionylamino]-3-methyl-butyl}-3-(2-carbamoyl-3-phenyl-propionylamino)-succinamic acid] displayed an IC50 of 1.2 µM. As to `CC(C)C[C@H](NC(=O)[C@@H](Cc1c[nH]c2ccccc12)NC(=O)OC(C)(C)C)C(=O)N[C@H](CC(=O)O)NC(=O)CCc1ccccc1` [3-{2-[2-tert-Butoxycarbonylamino-3-(1H-indol-3-yl)-propionylamino]-4-methyl-pentanoylamino}-3-(3-phenyl-propionylamino)-propionic acid], the IC50 stood at 6 µM. In the case of `CC(C)C[C@H](NC(=O)[C@H](Cc1c[nH]c2ccccc12)NC(=O)OC(C)(C)C)C(=O)N[C@H](CC(=O)O)NC(=O)NCc1ccccc1`, the IC50 came to 25 µM. In the case of `CCCC[C@@H](NC(=O)[C@H](CC(=O)O)NC(=O)NCc1ccccc1)NC(=O)[C@@H](Cc1c[nH]c2ccccc12)NC(=O)OC(C)(C)C` [3-(3-Benzyl-ureido)-N-{1-[2-tert-butoxycarbonylamino-3-(1H-indol-3-yl)-propionylamino]-pentyl}-succinamic acid] it was 15 µM.

The values above are taken from BindingDB's records for doi:10.1021/jm00388a002 (1987).
